SMILES strings stand for the structures.

Test [1] has as its system mouse peritoneal macrophages. The experiment in a line: Lyso-PS content of thioglycollate-elicited peritoneal macrophages. The test is classed as cell-based. The conditions noted are these: pre-treatment 1 μM, 4 h; LPS 5 μg/mL, 7 h. The method, then:
ABHD16A^+/+, ABHD16A^+/+, and ABHD16A^−/− littermates of 10 weeks age were anaesthetized by isoflurane and killed by decapitation. The tissues (brains were sliced laterally into two hemispheres; entire spinal cord) were harvested, weighed, and immediately submerged in liquid N2. Tissues (one half brain or entire spinal cord) were then Dounce-homogenized in 8 mL of 2:1:1 (vol/vol/vol) CHCl3: MeOH: PBS containing the internal standard mix (1 nmol 17:1 FFA, and 100 pmol each of 17:1 lyso-PS, 17:0-20:4 PS, 17:1 lyso-PC, 17:0-20:4 PC, 17:0-20:4 PE and 50 pmol of 2-AG-d5). Homogenates were transferred to a glass vial and centrifuged at 2800×g for 10 minutes to separate the two phases. The organic phase (bottom) was removed, 200 μL of formic acid was added to acidify the aqueous homogenate (to enhance extraction of phospholipids), and CHCl3 was added to make up 8 mL volume. […]
All the metabolites analyzed in this study were quantified using the multiple reaction monitoring (MRM) methods the targeted LC/MS analysis was done using an Agilent Technologies 6460 Triple Quad LC/M with an Agilent Technologies 1290 Infinity series quaternary pump. All data was collected using the LC/MS Data Acquisition mode of the Mass Hunter Workstation Software version B.05.00 build 5.0.5027.0 SP, and analyzed using the Quantitative Analysis mode of the same software. […]

Another test has as its system serine hydrolases. Nature of the test: Gel-based ABPP in K562, off-targets. Format: cell-based, human. The method, then: The K562 cell line was treated with varying concentrations of KC01 for 4 h and the cell membrane fractions analyzed by gel-based ABPP. More specifically, the membrane proteome of K562 cells (left gel, FIG. 9) or cultured K562 cells (right gel, FIG. 9) were treated with the indicated concentrations of KC01 (in vitro: 1 mg/mL proteome; 30 min treatment, 37° C.; in situ: 2×10^6 cells; 4 h treatment, 37° C.), followed by FP-rhodamine (added in vitro to cell proteomes at 2 μM for 30 min, 37° C.) and analyzed by gel-based ABPP. Estimated in vitro and in situ IC50 values for KC01 from the gel-based ABPP experiments were 0.2-0.5 μM. Gel-based ABPP experiments were performed in triplicate with consistent results.

The test system of a further test is COLO205 cells. Nature of the test: PS lipase activity of membrane fraction after in situ treatment. The conditions noted are these: 1 μM, 4 h.
Test [2] concerns the target mouse brain membrane PS lipase activity (Mus musculus, UniProt Q9Z1Q2). The test is classed as biochemical. The conditions noted are these: two-month old ABHD12+/+ and ABHD12−/− mice.
The subject of test [3] is additional off-targets (serine hydrolases). Nature of the test: ABPP-SILAC, COLO205 cells treated in situ. Format: cell-based, human. The conditions noted are these: 1 μM, 4 h.
Test [4] concerns the target T1, PS lipase activity of human lymphoblast cell lines (LCLs) (Homo sapiens, UniProt O95870).
T1 construct: PS lipase activity of membrane proteomes from indicated LCLs; endogenous in cells; host or cells: human lymphoblast cell lines (PHARC subject, relatives, controls), membrane proteome
The experiment in a line: PS lipase activity of LCL membrane proteomes. Format: biochemical. The conditions noted are these: proteomes pre-treated 1 μM, 30 min, 37° C. From the text: For part (a), Student's t-test: ** p<0.005 for PHARC LCL versus Control 1 or Control 2 LCLs.

Another test relates to MCF7 cells. Nature of the test: PS lipase activity of membrane fraction after in situ treatment. The conditions noted are these: 1 μM, 4 h.

T1 sequence (O95870 whole entry): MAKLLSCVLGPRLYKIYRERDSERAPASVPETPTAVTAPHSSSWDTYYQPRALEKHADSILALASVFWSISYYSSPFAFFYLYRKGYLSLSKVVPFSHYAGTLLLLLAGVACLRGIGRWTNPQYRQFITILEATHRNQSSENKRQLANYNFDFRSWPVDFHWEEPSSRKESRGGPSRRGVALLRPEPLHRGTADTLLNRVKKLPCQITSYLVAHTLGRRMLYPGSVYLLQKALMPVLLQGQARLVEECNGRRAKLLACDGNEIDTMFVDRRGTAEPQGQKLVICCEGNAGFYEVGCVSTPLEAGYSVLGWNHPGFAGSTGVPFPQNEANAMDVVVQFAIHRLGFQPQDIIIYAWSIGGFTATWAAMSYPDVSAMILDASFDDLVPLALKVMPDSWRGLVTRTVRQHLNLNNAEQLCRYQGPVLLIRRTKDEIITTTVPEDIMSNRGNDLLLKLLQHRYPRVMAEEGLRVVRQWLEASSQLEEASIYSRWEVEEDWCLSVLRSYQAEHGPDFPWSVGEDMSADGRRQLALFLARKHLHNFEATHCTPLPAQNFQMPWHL
mouse brain membrane PS lipase activity, sequence (Q9Z1Q2 whole entry): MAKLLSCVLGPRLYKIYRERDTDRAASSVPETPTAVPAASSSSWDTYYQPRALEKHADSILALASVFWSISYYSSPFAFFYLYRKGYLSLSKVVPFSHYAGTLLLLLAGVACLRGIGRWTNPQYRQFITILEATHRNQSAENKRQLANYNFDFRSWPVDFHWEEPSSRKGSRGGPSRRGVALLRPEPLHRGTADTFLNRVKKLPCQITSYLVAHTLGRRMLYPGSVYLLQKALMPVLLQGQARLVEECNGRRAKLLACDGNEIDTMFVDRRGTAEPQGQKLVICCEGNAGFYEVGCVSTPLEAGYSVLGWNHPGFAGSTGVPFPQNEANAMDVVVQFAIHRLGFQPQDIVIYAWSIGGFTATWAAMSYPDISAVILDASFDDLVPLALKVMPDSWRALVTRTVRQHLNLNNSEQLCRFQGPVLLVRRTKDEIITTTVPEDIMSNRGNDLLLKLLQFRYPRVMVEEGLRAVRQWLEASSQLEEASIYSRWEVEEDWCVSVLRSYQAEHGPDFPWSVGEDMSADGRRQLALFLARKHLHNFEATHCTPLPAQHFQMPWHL

As to `CCCCCCCCCCCCCC1OC(=O)/C1=C\CCCCC(N)=O` (stereo not shown) [KC01, (Z)-6-(2-oxo-4-tridecyloxetan-3-ylidene)hexanamide], the “basal and LPS-induced cellular and secreted lyso-PSs” value in test [1] is reported as “reduced”. The off-targets detected result with serine hydrolases was “Very few off-targets”. The “decrease of PS-lipase activity vs DMSO” value in the test on COLO205 cells and in the test with MCF7 cells was more than 90% throughout. Further, in test [2], the “PS lipase activity of brain membrane lysates” value is listed as “inhibited the PS lipase activity”. Besides, the inhibition in test [3] is given as 50-80%. Also, the PS lipase activity result in test [4] is given as “substantially reduced”.

(Values after patent US20170313669A1, “LACTONE COMPOUNDS AND METHODS OF MAKING AND USING SAME” (THE SCRIPPS RESEARCH INSTITUTE, priority 2015, published 2017).)
